Assay results reported in ChEMBL document CHEMBL3885861, “Open TG-GATES”.

Organism: Rattus norvegicus
Assay: Open TG-GATES - Regimen: Single
Assay type: toxicity, organism-based, Sprague-Dawley
Design: regimen Single, gender Male, age 6 weeks
Conditions: in vivo, po, 0 mg/kg, route gavage, dose level Control; for APTT / Bas / Eos / Fbg / Hb / Ht / Lym / MCH / MCHC / MCV / Mono / Neu / PT / Plat / RBC / Ret / WBC: tissue Blood; for KIDNEY_L / KIDNEY_R / KIDNEY_TOTAL: tissue Kidney; for LIVER: tissue Liver; for A/G / ALP / ALT / AST / BUN / CRE / Ca / Cl / DBIL / GLC / IP / K / LDH / Na / PL / RALB / TBIL / TC / TG / TP / gamma-GTP: tissue Plasma

CC(C)NNC(=O)c1ccncc1 [IPRONIAZID]
TERMINAL_BW (3 h): 208.3 g | APTT (3 h): 21.1 s | Bas (3 h): 0% | Eos (3 h): 0.6% | Fbg (3 h): 318.8 mg/dL | Hb (3 h): 13.3 g/dL | Ht (3 h): 38.7% | Lym (3 h): 82.2% | MCH (3 h): 21.3 pg | MCHC (3 h): 34.3% | MCV (3 h): 62.1 fL | Mono (3 h): 1.6% | Neu (3 h): 15% | PT (3 h): 16.4 s | Plat (3 h): 108.8 x10_4/uL | RBC (3 h): 624.6 x10_4/ul | Ret (3 h): 7.2% | WBC (3 h): 72.6 x10_2/uL | KIDNEY_L (3 h): 0.9 g | KIDNEY_R (3 h): 0.9 g | KIDNEY_TOTAL (3 h): 1.9 g | LIVER (3 h): 9.7 g | A/G (3 h): 1.3 | ALP (3 h): 1798.2 IU/L | ALT (3 h): 41.4 IU/L | AST (3 h): 78.6 IU/L | BUN (3 h): 13.6 mg/dL | CRE (3 h): 0.2 mg/dL | Ca (3 h): 10.8 mg/dL | Cl (3 h): 107.6 meq/L | DBIL (3 h): 0.004 mg/dL | GLC (3 h): 190.2 mg/dL | IP (3 h): 8 mg/dL | K (3 h): 4.1 meq/L | LDH (3 h): 225 IU/L | Na (3 h): 142.4 meq/L | PL (3 h): 136.4 mg/dL | RALB (3 h): 3.1 g/dL | TBIL (3 h): 0.022 mg/dL | TC (3 h): 75.4 mg/dL | TG (3 h): 53.2 mg/dL | TP (3 h): 5.5 g/dL | gamma-GTP (3 h): 1.2 IU/L | TERMINAL_BW (6 h): 208.9 g | APTT (6 h): 23.2 s | Bas (6 h): 0% | Eos (6 h): 0.8% | Fbg (6 h): 305.8 mg/dL | Hb (6 h): 13.3 g/dL | Ht (6 h): 38.6% | Lym (6 h): 79.4% | MCH (6 h): 21.5 pg | MCHC (6 h): 34.3% | MCV (6 h): 62.5 fL | Mono (6 h): 2.4% | Neu (6 h): 16.6% | PT (6 h): 15.6 s | Plat (6 h): 115.7 x10_4/uL | RBC (6 h): 618.8 x10_4/ul | Ret (6 h): 8.7% | WBC (6 h): 96.2 x10_2/uL | KIDNEY_L (6 h): 0.9 g | KIDNEY_R (6 h): 1 g | KIDNEY_TOTAL (6 h): 1.9 g | LIVER (6 h): 9 g | A/G (6 h): 1.3 | ALP (6 h): 1530.2 IU/L | ALT (6 h): 38.6 IU/L | AST (6 h): 71.6 IU/L | BUN (6 h): 11.2 mg/dL | CRE (6 h): 0.2 mg/dL | Ca (6 h): 10.6 mg/dL | Cl (6 h): 105.8 meq/L | DBIL (6 h): 0.006 mg/dL | GLC (6 h): 180 mg/dL | IP (6 h): 9.3 mg/dL | K (6 h): 4.3 meq/L | LDH (6 h): 179.8 IU/L | Na (6 h): 141.4 meq/L | PL (6 h): 140.6 mg/dL | RALB (6 h): 3 g/dL | TBIL (6 h): 0.02 mg/dL | TC (6 h): 75.6 mg/dL | TG (6 h): 62.6 mg/dL | TP (6 h): 5.3 g/dL | gamma-GTP (6 h): 1 IU/L | TERMINAL_BW (9 h): 200.8 g | APTT (9 h): 22.6 s | Bas (9 h): 0% | Eos (9 h): 1% | Fbg (9 h): 314.5 mg/dL | Hb (9 h): 12.9 g/dL | Ht (9 h): 37.8% | Lym (9 h): 75.5% | MCH (9 h): 21.4 pg | MCHC (9 h): 34.3% | MCV (9 h): 62.6 fL | Mono (9 h): 2% | Neu (9 h): 20.5% | PT (9 h): 15.7 s | Plat (9 h): 110.7 x10_4/uL | RBC (9 h): 605.5 x10_4/ul | Ret (9 h): 8.4% | WBC (9 h): 86.5 x10_2/uL | KIDNEY_L (9 h): 0.9 g | KIDNEY_R (9 h): 0.9 g | KIDNEY_TOTAL (9 h): 1.9 g | LIVER (9 h): 8.5 g | A/G (9 h): 1.2 | ALP (9 h): 1450.5 IU/L | ALT (9 h): 41.2 IU/L | AST (9 h): 76.5 IU/L | BUN (9 h): 10.5 mg/dL | CRE (9 h): 0.2 mg/dL | Ca (9 h): 10.3 mg/dL | Cl (9 h): 107 meq/L | DBIL (9 h): 0.005 mg/dL | GLC (9 h): 178.2 mg/dL | IP (9 h): 9.8 mg/dL | K (9 h): 4 meq/L | LDH (9 h): 172.2 IU/L | Na (9 h): 141.8 meq/L | PL (9 h): 135 mg/dL | RALB (9 h): 3 g/dL | TBIL (9 h): 0.0175 mg/dL | TC (9 h): 81.8 mg/dL | TG (9 h): 39.8 mg/dL | TP (9 h): 5.5 g/dL | gamma-GTP (9 h): 1.2 IU/L | TERMINAL_BW (24 h): 216 g | APTT (24 h): 21.7 s | Bas (24 h): 0% | Eos (24 h): 1% | Fbg (24 h): 333.2 mg/dL | Hb (24 h): 13.5 g/dL | Ht (24 h): 39.1% | Lym (24 h): 77.8% | MCH (24 h): 21.4 pg | MCHC (24 h): 34.4% | MCV (24 h): 62.3 fL | Mono (24 h): 3% | Neu (24 h): 17.6% | PT (24 h): 16.7 s | Plat (24 h): 124 x10_4/uL | RBC (24 h): 627 x10_4/ul | Ret (24 h): 7.8% | WBC (24 h): 113.7 x10_2/uL | KIDNEY_L (24 h): 1 g | KIDNEY_R (24 h): 1 g | KIDNEY_TOTAL (24 h): 1.9 g | LIVER (24 h): 10.3 g | A/G (24 h): 1.2 | ALP (24 h): 1519.2 IU/L | ALT (24 h): 39.8 IU/L | AST (24 h): 76.8 IU/L | BUN (24 h): 17.2 mg/dL | CRE (24 h): 0.2 mg/dL | Ca (24 h): 10.9 mg/dL | Cl (24 h): 107.6 meq/L | DBIL (24 h): 0.002 mg/dL | GLC (24 h): 179.6 mg/dL | IP (24 h): 7.6 mg/dL | K (24 h): 4.4 meq/L | LDH (24 h): 287.6 IU/L | Na (24 h): 142.6 meq/L | PL (24 h): 152.8 mg/dL | RALB (24 h): 3.1 g/dL | TBIL (24 h): 0 mg/dL | TC (24 h): 82.2 mg/dL | TG (24 h): 84.4 mg/dL | TP (24 h): 5.6 g/dL | gamma-GTP (24 h): 1.8 IU/L
